Experimental data as given in PubChem BioAssay (NCI).
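Interpolation was linear, between the two tested concentrations surrounding the appropriate level; five concentrations were tested over 48 hours in 96-well plates. The concentration for 50% growth inhibition is given as GI50. TGI: concentration producing complete growth inhibition.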

Assays:
Experiment in all cases: NCI-60 cell line screen, 48 h
RXF 393 renal = system: RXF 393 renal
MOLT-4 leukemia = system: MOLT-4 leukemia
HCC-2998 colon = system: HCC-2998 colon
BT-549 breast = system: BT-549 breast
CAKI-1 renal = system: CAKI-1 renal
OVCAR-4 ovarian = system: OVCAR-4 ovarian
CCRF-CEM leukemia = system: CCRF-CEM leukemia
NCI-H460 lung = system: NCI-H460 lung
MDA-MB-231 breast = system: MDA-MB-231 breast
SW-620 colon = system: SW-620 colon
SN12C renal = system: SN12C renal
RPMI-8226 leukemia = system: RPMI-8226 leukemia
SK-MEL-2 melanoma = system: SK-MEL-2 melanoma
M14 melanoma = system: M14 melanoma
HCT-15 colon = system: HCT-15 colon
OVCAR-8 ovarian = system: OVCAR-8 ovarian
SK-OV-3 ovarian = system: SK-OV-3 ovarian
T-47D breast = system: T-47D breast
ACHN renal = system: ACHN renal
U251 CNS = system: U251 CNS
SF-295 CNS = system: SF-295 CNS
UO-31 renal = system: UO-31 renal
IGROV1 ovarian = system: IGROV1 ovarian
HCT-116 colon = system: HCT-116 colon
LOX IMVI melanoma = system: LOX IMVI melanoma
K-562 leukemia = system: K-562 leukemia
TK-10 renal = system: TK-10 renal
SF-539 CNS = system: SF-539 CNS
COLO 205 colon = system: COLO 205 colon
SK-MEL-28 melanoma = system: SK-MEL-28 melanoma
MALME-3M melanoma = system: MALME-3M melanoma
MCF7 breast = system: MCF7 breast
SK-MEL-5 melanoma = system: SK-MEL-5 melanoma
NCI-H522 lung = system: NCI-H522 lung
UACC-257 melanoma = system: UACC-257 melanoma
HOP-62 NSCLC = system: HOP-62 NSCLC
EKVX NSCLC = system: EKVX NSCLC
DU-145 prostate = system: DU-145 prostate
HL-60(TB) leukemia = system: HL-60(TB) leukemia
A549 NSCLC = system: A549 NSCLC
HT29 colon = system: HT29 colon
NCI-H23 lung = system: NCI-H23 lung
HS 578T breast = system: HS 578T breast
NCI/ADR-RES ovarian = system: NCI/ADR-RES ovarian
SNB-19 CNS = system: SNB-19 CNS
SNB-75 CNS = system: SNB-75 CNS
SR leukemia = system: SR leukemia
SF-268 CNS = system: SF-268 CNS
KM12 colon = system: KM12 colon
MDA-MB-435 = system: MDA-MB-435
A498 renal = system: A498 renal
786-0 renal = system: 786-0 renal
NCI-H226 lung = system: NCI-H226 lung
OVCAR-5 ovarian = system: OVCAR-5 ovarian
OVCAR-3 ovarian = system: OVCAR-3 ovarian
UACC-62 melanoma = system: UACC-62 melanoma
PC-3 prostate = system: PC-3 prostate

CS(=O)(=O)CCN(CC#N)Cc1ccc(-c2ccc3ncnc(Nc4ccc(OCc5cccc(F)c5)c(Cl)c4)c3c2)o1
GI50 (RXF 393 renal): 10.8 µM | TGI (RXF 393 renal): > 23.5 µM | GI50 (MOLT-4 leukemia): 8.81 µM | TGI (MOLT-4 leukemia): > 25 µM | GI50 (HCC-2998 colon): 15.1 µM | TGI (HCC-2998 colon): > 25 µM | GI50 (BT-549 breast): 15.6 µM | TGI (BT-549 breast): > 25 µM | GI50 (CAKI-1 renal): 0.896 µM | TGI (CAKI-1 renal): > 25 µM | GI50 (OVCAR-4 ovarian): 11.4 µM | TGI (OVCAR-4 ovarian): > 25 µM | GI50 (CCRF-CEM leukemia): 9.45 µM | TGI (CCRF-CEM leukemia): > 25 µM | GI50 (NCI-H460 lung): 10.9 µM | TGI (NCI-H460 lung): > 25 µM | GI50 (MDA-MB-231 breast): 8.35 µM | TGI (MDA-MB-231 breast): > 25 µM | GI50 (SW-620 colon): 11.7 µM | TGI (SW-620 colon): > 25 µM | GI50 (SN12C renal): 12.7 µM | TGI (SN12C renal): > 25 µM | GI50 (RPMI-8226 leukemia): 11.7 µM | TGI (RPMI-8226 leukemia): > 25 µM | GI50 (SK-MEL-2 melanoma): 17.3 µM | TGI (SK-MEL-2 melanoma): > 25 µM | GI50 (M14 melanoma): 11.7 µM | TGI (M14 melanoma): > 25 µM | GI50 (HCT-15 colon): 10.2 µM | TGI (HCT-15 colon): > 25 µM | GI50 (OVCAR-8 ovarian): 9.75 µM | TGI (OVCAR-8 ovarian): > 25 µM | GI50 (SK-OV-3 ovarian): 0.107 µM | TGI (SK-OV-3 ovarian): > 25 µM | GI50 (T-47D breast): 5.48 µM | TGI (T-47D breast): > 23.7 µM | GI50 (ACHN renal): 1.73 µM | TGI (ACHN renal): > 25 µM | GI50 (U251 CNS): 15.2 µM | TGI (U251 CNS): > 25 µM | GI50 (SF-295 CNS): 24.7 µM | TGI (SF-295 CNS): > 25 µM | GI50 (UO-31 renal): 5.56 µM | TGI (UO-31 renal): > 25 µM | GI50 (IGROV1 ovarian): 6.25 µM | TGI (IGROV1 ovarian): > 25 µM | GI50 (HCT-116 colon): 11 µM | TGI (HCT-116 colon): > 25 µM | GI50 (LOX IMVI melanoma): 6.52 µM | TGI (LOX IMVI melanoma): 19.8 µM | GI50 (K-562 leukemia): 9.98 µM | TGI (K-562 leukemia): > 25 µM | GI50 (TK-10 renal): 1.19 µM | TGI (TK-10 renal): > 25 µM | GI50 (SF-539 CNS): > 25 µM | TGI (SF-539 CNS): > 25 µM | GI50 (COLO 205 colon): > 19.1 µM | TGI (COLO 205 colon): > 25 µM | GI50 (SK-MEL-28 melanoma): > 25 µM | TGI (SK-MEL-28 melanoma): > 25 µM | GI50 (MALME-3M melanoma): 14.9 µM | TGI (MALME-3M melanoma): > 25 µM | GI50 (MCF7 breast): 8.66 µM | TGI (MCF7 breast): > 25 µM | GI50 (SK-MEL-5 melanoma): 4.91 µM | TGI (SK-MEL-5 melanoma): > 25 µM | GI50 (NCI-H522 lung): 4.3 µM | TGI (NCI-H522 lung): > 18.5 µM | GI50 (UACC-257 melanoma): > 25 µM | TGI (UACC-257 melanoma): > 25 µM | GI50 (HOP-62 NSCLC): > 25 µM | TGI (HOP-62 NSCLC): > 25 µM | GI50 (EKVX NSCLC): 0.313 µM | TGI (EKVX NSCLC): > 25 µM | GI50 (DU-145 prostate): 10.5 µM | TGI (DU-145 prostate): > 25 µM | GI50 (HL-60(TB) leukemia): 11.2 µM | TGI (HL-60(TB) leukemia): > 25 µM | GI50 (A549 NSCLC): 14.6 µM | TGI (A549 NSCLC): > 25 µM | GI50 (HT29 colon): 10.3 µM | TGI (HT29 colon): > 25 µM | GI50 (NCI-H23 lung): 13.2 µM | TGI (NCI-H23 lung): > 25 µM | GI50 (HS 578T breast): 6.13 µM | TGI (HS 578T breast): > 20.4 µM | GI50 (NCI/ADR-RES ovarian): 8.17 µM | TGI (NCI/ADR-RES ovarian): > 25 µM | GI50 (SNB-19 CNS): > 25 µM | TGI (SNB-19 CNS): > 25 µM | GI50 (SNB-75 CNS): > 17.1 µM | TGI (SNB-75 CNS): > 25 µM | GI50 (SR leukemia): 8.93 µM | TGI (SR leukemia): > 25 µM | GI50 (SF-268 CNS): 16 µM | TGI (SF-268 CNS): > 25 µM | GI50 (KM12 colon): 9.34 µM | TGI (KM12 colon): > 25 µM | GI50 (MDA-MB-435): 11 µM | TGI (MDA-MB-435): > 25 µM | GI50 (A498 renal): 4.29 µM | TGI (A498 renal): > 23.7 µM | GI50 (786-0 renal): 14.9 µM | TGI (786-0 renal): > 25 µM | GI50 (NCI-H226 lung): > 25 µM | TGI (NCI-H226 lung): > 25 µM | GI50 (OVCAR-5 ovarian): 7.89 µM | TGI (OVCAR-5 ovarian): > 25 µM | GI50 (OVCAR-3 ovarian): 10.6 µM | TGI (OVCAR-3 ovarian): > 25 µM | GI50 (UACC-62 melanoma): > 22.3 µM | TGI (UACC-62 melanoma): > 25 µM | GI50 (PC-3 prostate): 10.9 µM | TGI (PC-3 prostate): > 25 µM
